In patent US20070244179A1, “Dihydro[1,4]dioxino[2,3-e]indazole derivatives as 5-hydroxytryptamine-6 ligands” (Wyeth, priority 2006, published 2007):
Where a name gives a salt, the structure may show the parent alone. Read-outs that look alike come from different tables or passages of the source.

What was measured:
[1] = biological target: human cloned 5-HT6 receptors (Homo sapiens, UniProt P50406); test: Evaluation of 5-HT6 binding affinity ([3H]-LSD displacement, membranes of Hela cells)
Sequence of human cloned 5-HT6 receptors (P50406 whole entry): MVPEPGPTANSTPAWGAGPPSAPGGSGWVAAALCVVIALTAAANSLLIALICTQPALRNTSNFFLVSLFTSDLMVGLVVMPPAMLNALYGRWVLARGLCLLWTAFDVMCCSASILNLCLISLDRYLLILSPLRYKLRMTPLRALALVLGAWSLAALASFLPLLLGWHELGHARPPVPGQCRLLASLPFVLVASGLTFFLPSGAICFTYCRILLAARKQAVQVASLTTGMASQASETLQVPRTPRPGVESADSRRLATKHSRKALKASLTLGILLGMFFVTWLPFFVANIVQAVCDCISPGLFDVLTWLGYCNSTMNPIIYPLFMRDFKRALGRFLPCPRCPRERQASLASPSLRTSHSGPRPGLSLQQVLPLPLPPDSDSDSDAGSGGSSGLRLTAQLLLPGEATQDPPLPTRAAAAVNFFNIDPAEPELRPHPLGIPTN

| SMILES | melting point | Ki [1] | also measured |
| --- | --- | --- | --- |
| CCCCNC[C@@H]1COc2ccc3[nH]nc(S(=O)(=O)c4cccc5ccccc45)c3c2O1 [Example 18] | – | – | Ki ([1]; read-out: 5-HT6 Binding Ki, [3H]-LSD 3.0 nM, Hela cell membranes expressing human cloned 5-HT6 receptors, 120 minutes at room temperature): 30 nM |
| CCNC[C@H]1COc2ccc3[nH]nc(S(=O)(=O)c4cccc5ccccc45)c3c2O1 (as salt: hydrochloride) [Example 7, N-{[(2S)-9-(1-naphthylsulfonyl)-2,3-dihydro-7H-[1,4]dioxino[2,3-e]indazol-2-yl]-methyl}ethanamine] | 178.9 to 180.1 °C | – | – |
| CCNC[C@@H]1COc2ccc3[nH]nc(S(=O)(=O)c4cccc5ccccc45)c3c2O1 [Example 15, N-{[(2R)-9-(1-naphthylsulfonyl)-2,3-dihydro-7H-[1,4]dioxino[2,3-e]indazol-2yl]methyl}-ethanamine] | – | 32.5 nM | – |
| CCN(CC)C[C@@H]1COc2ccc3[nH]nc(S(=O)(=O)c4cccc5ccccc45)c3c2O1 [Example 14, N-ethyl-N-{[(2R)-9-(1-naphthylsulfonyl)-2,3-dihydro-7H-[1,4]dioxino[2,3-e]indazol-2yl]-methyl}ethanamine] | – | 42 nM | – |
| O=S(=O)(c1cccc2ccccc12)c1n[nH]c2ccc3c(c12)O[C@H](CN1CCCCC1)CO3 (as salt: hydrochloride) [Example 17, (2R)-9-(1-naphthylsulfonyl)-2-(piperidin-1-ylmeyhyl)-2,3-dihydro-7H [1,4]dioxino-[2,3-e]indazole] | 187 to 189 °C | – | – |
| CN(C)C[C@@H]1COc2ccc3[nH]nc(S(=O)(=O)c4cccc5ccccc45)c3c2O1 [Example 13, N,N-dimethyl-1-[(2R)-9-(1-naphthylsulfonyl)-2,3-dihydro-7H-[1,4]dioxino[2,3-e]-indazol-2-yl]methanamine] | – | 31 nM | – |
| O=S(=O)(c1cccc2ccccc12)c1n[nH]c2ccc3c(c12)O[C@H](CN1CCCCC1)CO3 [Example 17, (2R)-9-(1-naphthylsulfonyl)-2-(piperidin-1-ylmeyhyl)-2,3-dihydro-7H [1,4]dioxino-[2,3-e]indazole] | – | 36.5 nM | – |
| O=S(=O)(c1cccc2ccccc12)c1n[nH]c2ccc3c(c12)O[C@H](CN1CCCC1)CO3 [Example 16, (2R)-9-(1-naphthylsulfonyl)-2-(pyrrolidin-1-ylmeyhyl)-2,3-dihydro-7H-[1,4]dioxino-[2,3-e]indazole] | – | 39.5 nM | – |
| CNC[C@H]1COc2ccc3[nH]nc(S(=O)(=O)c4cccc5ccccc45)c3c2O1 (as salt: hydrochloride) [Example 6, N-Methyl-1-[(2S)-9-(1-naphthylsulfonyl)-2,3-dihydro-7H-[1,4]dioxino [2,3-e]indazol-2-yl]methanamine Hydrochloride] | 181.3 to 183.3 °C | – | – |
| CNC[C@H]1COc2ccc3[nH]nc(S(=O)(=O)c4cccc5ccccc45)c3c2O1 [Example 6, N-Methyl-1-[(2S)-9-(1-naphthylsulfonyl)-2,3-dihydro-7H-[1,4]dioxino [2,3-e]indazol-2-yl]methanamine Hydrochloride] | – | 44.5 nM | – |
| O=S(=O)(c1cccc2ccccc12)c1n[nH]c2ccc3c(c12)O[C@@H](CN1CCCCC1)CO3 (as salt: hydrochloride) [Example 11, (2S)-9-(1-naphthylsulfonyl)-2-(piperidin-1-ylmethyl)-2,3-dihydro-7H-[1,4]dioxino-[2,3-e]indazole] | 163.9 to 165.2 °C | – | – |
| CN(C)C[C@H]1COc2ccc3[nH]nc(S(=O)(=O)c4cccc5ccccc45)c3c2O1 (as salt: hydrochloride) [Example 8, N,N-dimethyl-1-[(2S)-9-(1-naphthylsulfonyl)-2,3-dihydro-7H-[1,4]dioxino[2,3-e]-indazol-2-yl]methanamine] | 178.1 to 181.3 °C | – | – |
| O=S(=O)(c1cccc2ccccc12)c1n[nH]c2ccc3c(c12)O[C@@H](CN1CCCC1)CO3 (as salt: hydrochloride) [Example 10, (2S)-9-(1-naphthylsulfonyl)-2-(pyrrolidin-1-ylmethyl)-2,3-dihydro-7H-[1,4]dioxino-[2,3-e]indazole] | 182.6 to 184.3 °C | – | – |
| CNC[C@@H]1COc2ccc3[nH]nc(S(=O)(=O)c4cccc5ccccc45)c3c2O1 [Example 12, N-methyl-1-[(2R)-9-(1-naphthylsulfonyl)-2,3-dihydro-7H-[1,4]dioxino[2,3-e]indazol-2-yl]methanamine] | – | 54.5 nM | – |
| CCNC[C@H]1COc2ccc3[nH]nc(S(=O)(=O)c4cccc5ccccc45)c3c2O1 [Example 7, N-{[(2S)-9-(1-naphthylsulfonyl)-2,3-dihydro-7H-[1,4]dioxino[2,3-e]indazol-2-yl]-methyl}ethanamine] | – | 84 nM | – |
| CCN(CC)C[C@@H]1COc2ccc3[nH]nc(S(=O)(=O)c4cccc5ccccc45)c3c2O1 (as salt: hydrochloride) [Example 14, N-ethyl-N-{[(2R)-9-(1-naphthylsulfonyl)-2,3-dihydro-7H-[1,4]dioxino[2,3-e]indazol-2yl]-methyl}ethanamine] | > 200 °C | – | – |
| O=S(=O)(c1cccc2ccccc12)c1n[nH]c2ccc3c(c12)O[C@H](CN1CCCC1)CO3 (as salt: hydrochloride) [Example 16, (2R)-9-(1-naphthylsulfonyl)-2-(pyrrolidin-1-ylmeyhyl)-2,3-dihydro-7H-[1,4]dioxino-[2,3-e]indazole] | 184 to 186 °C | – | – |
| O=S(=O)(c1cccc2ccccc12)c1n[nH]c2ccc3c(c12)O[C@@H](CN1CCCCC1)CO3 [Example 11, (2S)-9-(1-naphthylsulfonyl)-2-(piperidin-1-ylmethyl)-2,3-dihydro-7H-[1,4]dioxino-[2,3-e]indazole] | – | 79 nM | – |
| CN(C)C[C@H]1COc2ccc3[nH]nc(S(=O)(=O)c4cccc5ccccc45)c3c2O1 [Example 8, N,N-dimethyl-1-[(2S)-9-(1-naphthylsulfonyl)-2,3-dihydro-7H-[1,4]dioxino[2,3-e]-indazol-2-yl]methanamine] | – | 61.5 nM | – |
| O=S(=O)(c1cccc2ccccc12)c1n[nH]c2ccc3c(c12)O[C@@H](CN1CCCC1)CO3 [Example 10, (2S)-9-(1-naphthylsulfonyl)-2-(pyrrolidin-1-ylmethyl)-2,3-dihydro-7H-[1,4]dioxino-[2,3-e]indazole] | – | 31 nM | – |
| CCN(CC)C[C@H]1COc2ccc3[nH]nc(S(=O)(=O)c4cccc5ccccc45)c3c2O1 (as salt: hydrochloride) [Example 9, N-ethyl-N-{[(2S)-9-(1-naphthylsulfonyl)-2,3-dihydro-7H-[1,4]dioxino[2,3-e]indazol-2-yl]methyl}ethanamine] | 175.6 to 177.2 °C | – | – |
| CN(C)C[C@@H]1COc2ccc3[nH]nc(S(=O)(=O)c4cccc5ccccc45)c3c2O1 (as salt: hydrochloride) [Example 13, N,N-dimethyl-1-[(2R)-9-(1-naphthylsulfonyl)-2,3-dihydro-7H-[1,4]dioxino[2,3-e]-indazol-2-yl]methanamine] | > 200 °C | – | – |
| CCNC[C@@H]1COc2ccc3[nH]nc(S(=O)(=O)c4cccc5ccccc45)c3c2O1 (as salt: hydrochloride) [Example 15, N-{[(2R)-9-(1-naphthylsulfonyl)-2,3-dihydro-7H-[1,4]dioxino[2,3-e]indazol-2yl]methyl}-ethanamine] | 182 to 184 °C | – | – |
| CNC[C@@H]1COc2ccc3[nH]nc(S(=O)(=O)c4cccc5ccccc45)c3c2O1 (as salt: hydrochloride) [Example 12, N-methyl-1-[(2R)-9-(1-naphthylsulfonyl)-2,3-dihydro-7H-[1,4]dioxino[2,3-e]indazol-2-yl]methanamine] | > 200 °C | – | – |
| CCN(CC)C[C@H]1COc2ccc3[nH]nc(S(=O)(=O)c4cccc5ccccc45)c3c2O1 [Example 9, N-ethyl-N-{[(2S)-9-(1-naphthylsulfonyl)-2,3-dihydro-7H-[1,4]dioxino[2,3-e]indazol-2-yl]methyl}ethanamine] | – | 13.5 nM | – |
